melting point [°C]	Compound
91	CCCCCCCCCCCCCc1nnc(C=Cc2ncc([N+](=O)[O-])n2C)s1
144 to 145	NOCc1cn(C(c2ccccc2)(c2ccccc2)c2ccccc2)nn1
198 to 201	O=C(c1ccccc1)N1C(=O)c2cccnc2Nc2ccccc21
99.2	CCC(=S)C1Cc2c(OC)ccc(OC)c2CO1 (stereo unspecified)
152 to 154	CC(C)CN1C(=O)CCC(c2ccccc2Cl)c2cc(Cl)ccc21 (stereo unspecified)
138 to 140	Cn1cc(SC(F)(F)F)c(N)n1
184 to 186	CC(=NOCCOc1ccc(CC2SC(=O)NC2=O)cc1)c1ccc(-c2ccc(C)cc2)cc1 (stereo unspecified)
224 to 225	Cc1c(Cl)cc(C(C)(C)C)c(O)c1-c1nc2ccc(F)cc2c(=O)[nH]1
149 to 154	O=C(O)c1ccccc1OCc1cccc(OCc2ccc3ccccc3n2)c1
64 to 67	CC(C)[C@H](NC(=O)OCc1ccccc1)C(=O)OC[C@H]1O[C@@H](n2cc(F)c(=O)[nH]c2=O)[C@H](O)[C@@H]1O
145	CCCn1c(=O)c2c(nc(C3CCC(=O)C3)n2Cc2ccccc2)n(CCC)c1=O (stereo unspecified)
236 to 237	CCOC(=O)c1cc2cc(F)cnc2n1Cc1ccncc1
131 to 133	COc1cc(NC(=S)NC2CCCCC2)ccc1NNC=O
250	COc1ccc(CN(C)CCCCc2ccc(NC(=O)c3cccc4c(=O)c5cccc(N)c5[nH]c34)cc2)cc1OC
152 to 153	CC(=O)NCC1CN(c2ccc(N3CCC(=CC#N)C(C)C3)c(F)c2)C(=O)O1 (stereo unspecified)
178 to 180	COCCOc1cc2ncnc(NC3=CC(=O)C(N(C)C4CCCCC4)=CC3=O)c2cc1OC
144 to 145	Cc1cc(C2OC(=O)NC2=O)c(C)o1 (stereo unspecified)
107 to 109	CCS(=O)(=O)c1ccc(C=O)cc1
165 to 166	OCC12CC(c3ccccc31)c1ccccc12
108	Cc1ccc(Br)cc1Cn1c(C=O)nn(C)c1=O
> 300	O=c1cc(-c2cncnc2)oc2c(O)c(O)ccc12
92 to 93	COc1ccc(CC2NCCOc3c2cnn(C)c3=O)cc1 (stereo unspecified)
179	Cc1cccc(C2=CCN(c3ccc(O)nn3)CC2)c1
133	CC(=O)Nc1ccc(C=O)cc1F

melting point [°C]	Compound
100	COc1ccc(C(=O)C=CC(=O)O)c(OC)c1OC
120 to 121	CC(C)(C)OCc1cc(C(C)(C)C)cc(COC(C)(C)C)c1SSc1c(COC(C)(C)C)cc(C(C)(C)C)cc1COC(C)(C)C
90 to 92	CC(C)S(=O)(=O)NCc1ccc2ccn(C3CCN(CCc4ccc(F)cc4)CC3)c2c1
150	Cn1c(N=C=O)c(-c2ccccc2)c2cc(Cl)ccc21
98 to 99	CC(C)(C)c1ccc(CI)cc1[N+](=O)[O-]
195	CC(C)(C)C1=NC(=Cc2[nH]c(C(C)(C)C)c3ccccc23)c2ccccc21
109 to 110	CCOC(=O)c1c(-c2ccc(OC)c(OC)c2)c2cc(C)ccc2n(C)c1=O
79 to 80	COc1cc(COC(C)=O)c(COC(C)=O)cc1OCCCl
126 to 128	CCON=C(CC)C1=C(O)CC(c2ccc(Sc3ccc(S(C)(=O)=O)cn3)cc2)CC1=O (stereo unspecified)
130 to 131	CC(=O)ON1CC(NC(=O)OCc2ccccc2)C1=O (stereo unspecified)
147 to 149	CC(Oc1ncn(-c2cccc(C(F)(F)F)c2)n1)C(N)=O (stereo unspecified)
209 to 210	N=C(N)NC(=O)c1cc(-c2cccc(N)c2)nc2ccccc12
182 to 184	COc1cc2c(cc1OC)[C@@H]1CN(C)CC[C@@H]1N=C2c1ccc(C)c(C)c1 (relative stereo)
52 to 53	CCCCCc1oc(-c2ccc(Cl)cc2)nc1CC(=O)OCC
62 to 64	CCCC(=O)Oc1ccc(-c2nc(-c3ccc(N(C)C)cc3)c(C)[nH]2)cc1OC
175	CCc1ccc(C(N)=O)c([N+](=O)[O-])c1
200	Oc1nc(C2CC2)ncc1Br
134	CCOc1nn(C(=O)NS(=O)(=O)Nc2c(C)cccc2C(=O)CC)c(=O)n1C
119 to 121	COC(=O)c1c(Oc2ccccc2[N+](=O)[O-])c2ccccc2n1C
106	CN(Cc1ccc(=O)n(Cc2ccc(Cl)cc2)c1)c1ccccc1
70 to 72	CCOC(=O)CNC(=O)c1cccc(Cl)c1
> 300	Cc1cn(-c2cc(C(=O)O)cc(C(F)(F)F)c2)cn1
119 to 121	CCCCc1sc(C(N)=O)c2c1-c1c(cnn1C)CC2
42	C=CCN1CCCC1CNC(C)=O (stereo unspecified)

melting point [°C]	Compound
182	COc1cc2cc(C(=O)OCc3ccccc3)[nH]c2cn1
78 to 81	O=C(c1cccs1)c1cnn2c(-c3cccc(NCC4CC=CCC4)c3)ccnc12 (stereo unspecified)
195 to 198	CC(=O)c1ccc(OC2SCC(O)C(O)C2O)cc1 (stereo unspecified)
156 to 159	Cc1nc(N2CCN(C)CC2)nc(N)c1-c1cc(Cl)cc(Cl)c1Cl
97 to 99	COc1cc(OC)c(C(=O)N(C)OC)cc1Cl
208 to 209	CCCC1=CC(C)(C)Oc2c(OCC)cc(Cc3cnc(N)nc3N)cc21
192 to 193	CC1SCCCNC1=O (stereo unspecified)
149 to 150	COC(=O)COc1c(Cl)cc(C(=O)CN2CCN(c3ccncc3)CC2)cc1Cl
206 to 209	O=C1CCn2c(-c3ccccc3)nc3c(Cl)ccc1c32
196 to 198	CCOC(=O)C(=Cc1cccn2c([N+](=O)[O-])c(C)nc12)N=[N+]=[N-]
169 to 171	C1=CNc2c(ccc3ncccc23)C=N1
197 to 198	c1ccc(-c2ncc3[nH]c4c(c3n2)CCCC4)cc1
138 to 140	CC(=O)C1C(C)CC2C3CCC4CC(O)CCC4(C)C3C(=O)CC21C (stereo unspecified)
150 to 153	Cc1c(C)c2c(c(C)c1N)CC(C)(CN1CCc3c([nH]c4ccccc34)C1)O2 (stereo unspecified)
63 to 64	Cc1onc(-c2cccc(C(F)(F)F)c2)c1CCC(=O)O
246 to 248	O=C1Nc2c(F)cc(CN3C(=O)CSC3=O)cc2C1=Cc1cc(CN2CCOCC2)c[nH]1
179	N#Cc1ccc(-c2cn(-c3ccc(OCC(F)(F)F)cc3)cn2)cc1
207 to 208	O=c1c2cc(F)c(Cl)nc2n(-c2cccc(C(F)(F)F)c2)c(=O)n1OCc1ccccc1
295 to 296	O=c1[nH]c(=Cc2ccccc2[N+](=O)[O-])c(=O)[nH]c1=Cc1ccc(OCc2ccccc2)cn1
77 to 79	COc1ccc(CC(SC)C(=O)OCc2ccccc2)cc1C(=O)NCc1ccc(C(F)(F)F)cc1 (stereo unspecified)
164	CCOc1ccc2c(c1)n(C1CCCCC1)c(=O)n2Cc1ccc(C(=O)NC(C)(C)CC)cc1OC
262 to 265	O=C(O)c1cc2cccc(Cl)c2s1
160	COCC1=C(C(=O)OC)C(c2ccccc2Cl)c2c[nH]nc2N1 (stereo unspecified)
82 to 84	Oc1cccc(O)c1CCC(F)(F)F

melting point [°C]	Compound
85 to 90	Cc1ccc(S(=O)(=O)NC(=O)OCCc2ccc(-n3c(CCCN4CCCC4=O)nc4cc(C(F)(F)F)c(Cl)cc43)cc2)cc1
192 to 198	CS(=O)(=O)c1ccc(-n2cncc2-c2cnc(Cl)c(Cl)c2)cc1
> 300	Cn1ncc2[nH]c3c(F)cccc3c(=O)c21
174 to 176	COc1ccc(C(=O)NCC(=O)N2c3ccccc3N(Cc3ccccc3)C(=O)[C@H]3CCC[C@H]32)cc1OC (relative stereo)
172 to 174	COc1cc(OC)nc(Oc2cccc3c2C(=O)OC3F)n1 (stereo unspecified)
152 to 155	CCOC(CNC(=S)Nc1ccn(C)n1)OCC
212 to 215	O=C(NC(=O)c1c(Cl)cccc1Cl)Nc1noc2ccccc12
60 to 70	Cc1nc[nH]c1CSCCN=C(NCCSCc1[nH]cnc1C)NC(N)=O
242 to 244	CCCCN(CCCC)c1ccc(C=Cc2cc(C)c(C=CC3=C(C#N)C(=C(C#N)C#N)OC3(C)C)cc2C)c(OC)c1
62 to 67	c1ccc(-c2ccccc2OCCCCOc2ccccc2-c2ccccc2)cc1
218 to 219	CC(C)(NC(=O)C1=C(C(=O)Nc2cc(OC3CCCC3)c(Cl)cc2F)CCCC1)c1ccc(Cl)cc1
105 to 107	Cc1ncccc1Oc1ccc(C(=N)Nc2cc(Cl)cc(NC(=O)C=Cc3ccccc3Cl)c2)cc1
42 to 44	Cc1ccc(S(=O)(=O)N(C)F)cc1
115 to 118	COc1ccc(-c2ccc(C(C)=O)cc2Cl)c(OC)c1
110 to 111	O=C(O)CCc1cccc2c1C[C@@H](CCCCc1ccccc1)O2
155 to 156	CCOC(=O)Cc1ccc(NC(=O)C(COS(C)(=O)=O)NS(=O)(=O)c2ccc(Br)cc2)cc1 (racemic)
116 to 117	CC1(CF)C=C(Br)c2cc([N+](=O)[O-])ccc2O1 (stereo unspecified)
165 to 167	Cc1cc(SCc2ccc(OCc3ccc(C(F)(F)F)cc3)cc2)c2c(c1OCC(=O)O)CCC2
175 to 176	CC(C)(C)c1cc(CCc2ccccc2NC(=O)NC2CCN(CCc3ccccc3)CC2)cc(C(C)(C)C)c1O
143 to 145	C[C@@H](O[C@H]1CCCN(Cc2n[nH]c(=O)[nH]2)[C@H]1c1ccccc1)c1cccc(C(F)(F)F)c1
64 to 67	COc1cccc(CNC(CCCCCC(=O)O)C(C)C)c1 (stereo unspecified)
140 to 146	CC(=O)OC1CCC2(C)C(CCC3C2CCC2(C)C(C(C)CCCI)CCC32)C1 (stereo unspecified)
103 to 105	NC(=O)c1cccc(N)c1N
222 to 224	c1ccc(-c2cc3ccncc3[nH]2)cc1

Compound	melting point [°C]
COc1c(C(=O)NC2CN3CCC2CC3)cc(Cl)c2c1CCCN2 (stereo unspecified)	105 to 108
CC(C)(C)OC(=O)N1C2CCC1C(=O)C2 (stereo unspecified)	60 to 62
CCOC1CC2(C)C(CCC3C4CCC(C(=O)CBr)C4(C)CC(=O)C32)CC1O (stereo unspecified)	74 to 78
O=[N+]([O-])C(Sc1ccc(Cl)cc1)=C1NCCN1Cc1ccc(Cl)nc1	159 to 161
CC1=C(N2CC2)C(=O)c2c([nH]c(C)c2C)C1=O	251 to 253
